Data as given in US10501454B2, “Monocyclic β-lactam-siderophore conjugate, and preparation method and use thereof” (Shanghai Institute of Materia Medica, Chinese Academy of …, priority 2016, dated 2019).
Structures can show the parent of a compound that is named as a salt.

Key:
[1] = system: Acinetobacter baumannii (4 strains); assay: MIC, broth microdilution, normal MH medium; assay type: cell-based; settings: Acinetobacter baumannii, read-out: Antibacterial activity MIC, Acinetobacter baumarmii (4 strains)
Description: (§1) Supplier of the strains: all of the above strains were provided by Sichuan Primed Shines Bio-tech Co., Ltd. A single colony was isolated by streaking on agar plates for each strain prior to the experiment, and the cells freshly cultured at 37° C. overnight were appropriately diluted for the experiment.
(§2) Medium: MH liquid medium (OXOID).
(§3) Culture condition: cells were incubated at 35-37° C. for 16-18 h.
(§4) The broth microdilution method recommended by Clinical and Laboratory Standards Institute (CLSI), Performance Standards for Antimicrobial Susceptibility Testing; Twenty-Third Informational Supplement, M02-All, M07-A9 and M11-A8, 2013 was used to determine the MIC value of each test sample against each test strain in the normal MH medium and iron-deficient MH medium.
(§5) After diluting each sample to different concentrations with normal MH medium, 100 μl of each test sample solution at different concentrations was separately aspirated onto a 96-well sterile polystyrene plate. Drug solutions were added to the 1st to 10th well with the final concentrations of 16, 8, 4, 2, 1, 0.5, 0.25, 0.125, 0.06, and 0.03 mg/L in each well, respectively. The 11th well, as a blank control, was not added with drugs and bacteria. The 12th well, as a bacterial growth control, was added with bacteria but no drug.
(§6) The test bacterial liquid was adjusted to a bacterial suspension of 0.5 Mcfarland standard with physiological saline, and diluted with MH broth at 1:100, and then added to the drug solution so that a final concentration of the bacterial liquid was approximately 10^4 CFU/ml; 100 μl of the bacterial liquid was further added to each of the above wells (the total volume in each well is 200 μl), which was sealed and placed in a 35-37° C. incubator for 18-20 h for testing the result. The OD600 value was measured by a microplate reader, Minimal Inhibitory Concentration (MIC) of a drug is the lowest concentration of the drug which prevents growth of bacteria in the wells. 1.2.2 MIC in iron-deficient MH medium

[2] = system: Escherichia coli (4 strains); assay: MIC, broth microdilution, normal MH medium; assay type: cell-based
Description: as §1, §2, §3, §4, §5, §6

[3] = system: Pseudomonas aeruginosa (4 strains); assay: MIC, broth microdilution, normal MH medium; assay type: cell-based; settings: Pseudomonas aeruginosa, multidrug-resistant clinical isolates (integrator I, IMP4), read-out: Antibacterial activity MIC, Pseudomonas aeruginosa (4 strains)
Description: as §1, §2, §3, §4, §5, §6

[4] = system: Escherichia coli ATCC 35218; assay: MIC, broth microdilution, iron-deficient MH medium; assay type: cell-based; settings: Escherichia coli, ATCC35218; iron-deficient MH medium (16 mg/L 2,2'-bipyridine); quality control strain; read-out: Antibacterial activity MIC, Escherichia coli ATCC 35218
Description: Strain for quality control: Escherichia coli ATCC35218, purchased from National Center of Clinical Laboratory.
as §2, §3, §4
BPL was added to the normal MH medium to obtain a final concentration of 16 mg/L; According to the method in Section 1.2.1, 100 μl of each test sample solution at different concentrations was aspirated to the 1st to 10th well in a 96-well sterile polystyrene plate to obtain the final drug concentrations of 16, 8, 4, 2, 1, 0.5, 0.25, 0.125, 0.06, and 0.03 mg/L, respectively. Then, 100 μl of the test bacterial liquid was added to each well (200 μl per well), and the final concentration of the bacterial liquid was approximately 10^4 CFU/ml. After sealing, it was placed in a 35-37° C. incubator for 18-20 hours for testing the result. The OD600 value was measured by a microplate reader, Minimal Inhibitory Concentration (MIC) of a drug is the lowest concentration of the drug which prevents growth of bacteria in the wells.

[5] = system: Escherichia coli ECO-14-4 (ESBLs); assay: In vivo efficacy in mice systemically infected with Escherichia coli ECO-14-4 (ESBLs); settings: Escherichia coli; Kunming mice, intraperitoneal infection, drug s.c. 0.5 h and 4 h after infection, deaths over 7 days, Bliss method; read-out: ED50 Subcutaneous injection
Description: 3.1 Test strains: Clinically isolated pathogenic Escherichia coli ECO-14-4 (ESBLs), supplied by Sichuan Primed Shines Bio-tech Co., Ltd.
3.2 Test animals: Kunming mice, age: 4 to 5 weeks, weight: 18 to 22 g, half male, half female, SPF grade.
3.3 Test methods: Mice were randomly divided into several groups, 5 mice for each group, half male and half female, and 5 doses for each test drug: 1.25, 2.5, 5, 10 and 20 mg/kg. The mice were intraperitoneally injected with 0.5 mL of […] CFU/mL bacterial suspension for each mouse, and subcutaneously injected with the drug at the designed dose 0.5 h and 4 h after infection. The subcutaneous injection volume was 0.2 ml/20 g mouse weight; the number of deaths in mice was observed and recorded for 7 consecutive days. According to the number of deaths in mice, the half effective dose ED50 was calculated according to the Bliss method using the DAS 1.0 software, edited by Sun Ruiyuan et al.

[6] = system: Acinetobacter baumannii (4 strains); assay: MIC, broth microdilution, iron-deficient MH medium; assay type: cell-based; settings: Acinetobacter baumannii; iron-deficient MH medium (16 mg/L 2,2'-bipyridine); multidrug-resistant clinical isolates (integron I, OXA23); read-out: Antibacterial activity MIC, Acinetobacter baumannii (4 strains)

CC(C)C(O/N=C(\C(=O)N[C@@H]1C(=O)N(OS(=O)(=O)O)C1(C)C)c1csc(N)n1)c1cc(=O)c(O)cn1O (stereo partly drawn) [Compound 12, (3S)-3-((Z)-2-(2-aminothiazol-4-yl)-2-((1-(1,5-dihydroxy-4-oxo-1,4-dihydropyridin-2-yl)methylisopropyloxy)imine)acetamido)-2,2-dimethyl-4-oxoazetidine-1-hydrogen sulfate]
MIC [1]: 2 µg/mL | MIC ([2]; Escherichia coli, clinical isolates (ESBLs), read-out: Antibacterial activity MIC, Escherichia coli (4 strains)): 0.03 to 0.25 µg/mL | times more effective than BAL30072 in inhibitory activity against Escherichia coli ([2]; from MIC of Table 2): 4-32 times | MIC [3]: 0.25 to 2 µg/mL | MIC [4]: < 0.03 µg/mL | ED50 [5]: 3.37 mg/kg | MIC [6]: 0.5 to 1 µg/mL
